Assay results published in US11679107B2 (Eisai R&D Management Co., Ltd., priority 2018, dated 2023).
Like-named read-outs stand apart in the source and are kept apart here.

Legend:
SF3b complexes = target: T1, SF3b complexes (Homo sapiens, UniProt O75533+Q7RTV0); test: Scintillation proximity assay (SPA) with [3H]-labelled pladienolide probe; format: binding; conditions: SF3B1 (WT); geometric mean; read-out: SPA-ATS GMean IC50 (nM) SF3B1 (WT)
T1 construct: endogenous in cells; host or cells: Nuclear extracts; A HeLa S3 extract preparation is described for the in vitro splicing assay
Summary of the method: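 SF3b complexes captured from nuclear extracts on anti-SF3B1 antibody SPA beads; test compounds pre-incubated 30 min before 2.5 nM [3H]-pladienolide probe added, then 30 min incubation. Bound probe read by scintillation; values from non-linear regression of concentration–response curves.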

[1] = system: Ad2 variant pre-mRNAs spliced in HeLa S3 nuclear extracts; test: In vitro splicing assay (IVS), RT-qPCR of spliced product; format: biochemical; conditions: geometric mean
Summary of the method: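 Read-out is one-step TaqMan RT-qPCR of spliced Ad2 mRNA with Ftz as reference, normalized to DMSO and fit by non-linear regression. Reactions held HeLa S3 nuclear extract, 2 ng Ad2-derived pre-mRNA and test compound, with 15 min preincubation. Splicing was started with ATP-containing activation buffer and run 90 min at 30 °C.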

[2] = system: NCI-H1568 cells (high MCL1); test: Cell proliferation and viability, CellTiter-Glo, 72 hours; format: cell-based; conditions: for GI50: geometric mean; for CTGlo-ATS Mean MinResponse % 72 h NCIH1568.1: −100% cidal, 0% static, 100% maximal growth
Summary of the method: (§1)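 ATP luminescence (CellTiter-Glo) was measured 72 h after treatment with compound at 10 μM–100 pM (11 points, half-log) in 0.1% DMSO. The Panc line was grown in RPMI-1640 plus insulin and 15% FBS, the other in 10% FBS. Data were normalised to time zero and vehicle controls, where −100% is cidal and 0% static.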

[3] = system: Panc 05.04 cells (SF3b K700E mutant); test: as above; format: cell-based; conditions: for CTGlo-ATS Mean MinResponse % 72 h PANC0504.1: −100% cidal, 0% static, 100% maximal growth; for GI50: geometric mean
Summary of the method: as §1

[4] = Ad2.1 pre-mRNA substrate, read-out: qPCR-IVS-ATS GMean IC50 (nM) Ad2.1
[5] = Ad2.2 pre-mRNA substrate, read-out: qPCR-IVS-ATS GMean IC50 (nM) Ad2.2
[6] = NCI-H1568, read-out: CTGlo-ATS GMean GI50 (nM) 72 h NCIH1568.1, NCIH1568.1 cells, 72 h
[7] = Panc 05.04, read-out: CTGlo-ATS GMean GI50 (nM) 72 h PANC0504.1, PANC0504.1 cells, 72 h
[8] = NCI-H1568, 72 h, read-out: CTGlo-ATS GMean GI50 (nM) 72 h NCIH1568.1, NCIH1568.1 cells, 72 h
[9] = Panc 05.04, 72 h, read-out: CTGlo-ATS GMean GI50 (nM) 72 h PANC0504.1, PANC0504.1 cells, 72 h

SMILES | IC50 (SF3b complexes) [nM] | IC50 [1, 4] [nM] | IC50 [1, 5] [nM] | GI50 [2, 6] [nM] | CTGlo-ATS Mean MinResponse % 72 h NCIH1568.1 ([2]; NCIH1568.1 cells, 72 h) [%] | CTGlo-ATS Mean MinResponse % 72 h PANC0504.1 ([3]; PANC0504.1 cells, 72 h) [%] | GI50 [3, 7] [nM] | GI50 [2, 8] [nM] | GI50 [3, 9] [nM]
C/C(=C\c1cc(F)cc(N2CCN(C(=O)CC3CC3)CC2)c1)[C@H]1OC(=O)C[C@H](O)CC[C@H](C)[C@@H](OC(=O)N2CCN(C)CC2)/C=C/[C@@H]1C [Compound 121] | 2.99 | 25.5 | 22 | 2.66 | −80.331 | −88.956 | 3.73 |  | 
C/C(=C\c1cc(F)cc(N2CCN(C(=O)Cn3cccn3)CC2)c1)[C@H]1OC(=O)C[C@H](O)CC[C@H](C)[C@@H](OC(=O)N2CCN(C)CC2)/C=C/[C@@H]1C [Compound 122] | 5.5 | 18.8 | 14.3 | 2 | −85.128 | −70.057 | 2.1 |  | 
C/C(=C\c1cc(F)cc(N2CCN(C(=O)c3cnco3)CC2)c1)[C@H]1OC(=O)C[C@H](O)CC[C@H](C)[C@@H](OC(=O)N2CCN(C)CC2)/C=C/[C@@H]1C [Compound 123] | 1.7 | 16.5 | 13.1 | 2.26 | −86.056 | −71.328 | 2.75 |  | 
C/C(=C\c1cc(F)cc(N2CCN(S(=O)(=O)C3COC3)CC2)c1)[C@H]1OC(=O)C[C@H](O)CC[C@H](C)[C@@H](OC(=O)N2CCN(C)CC2)/C=C/[C@@H]1C [Compound 125] | 5.06 | 17.6 | 14.9 | 4.51 | −83.586 | −83.226 | 6.76 |  | 
C/C(=C\c1ccc2ccnc(O)c2c1)[C@H]1OC(=O)C[C@H](O)CC[C@H](C)[C@@H](OC(=O)N2CCN(C)CC2)/C=C/[C@@H]1C [Compound 127] | 19.1 | > 25000 | 452 |  | −18.734 | 11.995 |  | 835 | 1070
CNC(=O)Cn1ncc2c(F)cc(/C=C(\C)[C@H]3OC(=O)C[C@H](O)CC[C@H](C)[C@@H](OC(=O)N4CCN(C)CC4)/C=C/[C@@H]3C)cc21 [Compound 128] | 8.76 | 3350 | 18.1 | 25.7 | −62.651 | −96.227 | 44.2 |  | 
C/C(=C\c1cc(F)c2cnn(CC(=O)N3CCCC3)c2c1)[C@H]1OC(=O)C[C@H](O)CC[C@H](C)[C@@H](OC(=O)N2CCN(C)CC2)/C=C/[C@@H]1C [Compound 129] | 4.38 | 32 | 15.6 | 4.73 | −70.909 | −94.183 | 11.3 |  | 
C/C(=C\c1cc(F)c2cnn(CC(=O)N3CCOCC3)c2c1)[C@H]1OC(=O)C[C@H](O)CC[C@H](C)[C@@H](OC(=O)N2CCN(C)CC2)/C=C/[C@@H]1C [Compound 130] | 37.1 | 43.9 | 30 | 12 | −72.458 | −93.452 | 18.3 |  | 
C/C(=C\c1cc(F)c2cnn(CC#N)c2c1)[C@H]1OC(=O)C[C@H](O)CC[C@H](C)[C@@H](OC(=O)N2CCN(C)CC2)/C=C/[C@@H]1C [Compound 131] | 4.04 | 357 | 45.8 | 19.2 | −65.430 | −94.995 | 27.1 |  | 
C/C(=C\c1cc(F)c2cnn(CC(=O)N(C)C)c2c1)[C@H]1OC(=O)C[C@H](O)CC[C@H](C)[C@@H](OC(=O)N2CCN(C)CC2)/C=C/[C@@H]1C [Compound 132] | 4.91 | 34.1 | 12.8 | 11.5 | −68.423 | −94.673 | 13.6 |  | 
C/C(=C\c1ccc2c(F)nn(CC3CC3)c2c1)[C@H]1OC(=O)C[C@H](O)CC[C@H](C)[C@@H](OC(=O)N2CCN(C)CC2)/C=C/[C@@H]1C [Compound 133] | 6.99 | 1670 | 92.5 | 17.7 | −69.167 | −94.957 | 25.6 |  | 
COCCC(=O)N1CCN(c2cc(F)cc(/C=C(\C)[C@H]3OC(=O)C[C@H](O)CC[C@H](C)[C@@H](OC(=O)N4CCN(C)CC4)/C=C/[C@@H]3C)c2)CC1 [Compound 134] | 2.06 | 26.5 | 13.3 | 3.92 | −79.743 | −92.570 | 4.11 |  | 
C/C(=C\c1cc(F)cc(N2CCN(C(=O)CO)CC2)c1)[C@H]1OC(=O)C[C@H](O)CC[C@H](C)[C@@H](OC(=O)N2CCN(C)CC2)/C=C/[C@@H]1C [Compound 135] | 3.67 | 14.9 | 14.9 | 2.41 | −84.225 | −90.575 | 2.46 |  | 
C/C(=C\c1cc(F)c2nnn(CC3CC3)c2c1)[C@H]1OC(=O)C[C@H](O)CC[C@H](C)[C@@H](OC(=O)N2CCN(C)CC2)/C=C/[C@@H]1C [Compound 137] | 1.21 | 27.6 | 12.1 | 1.17 | −81.149 | −86.584 | 1.61 |  | 
C/C(=C\c1cc(F)c2nn(CC3CC3)nc2c1)[C@H]1OC(=O)C[C@H](O)CC[C@H](C)[C@@H](OC(=O)N2CCN(C)CC2)/C=C/[C@@H]1C [Compound 138] | 8.7 | > 25000 | 57.5 | 70.3 | −80.330 | −85.916 | 120 |  | 
C/C(=C\c1cc(F)c2c(c1)nnn2CC1CC1)[C@H]1OC(=O)C[C@H](O)CC[C@H](C)[C@@H](OC(=O)N2CCN(C)CC2)/C=C/[C@@H]1C [Compound 139] | 4.32 | > 25000 | 93.2 | 142 | −61.022 | −21.195 | 240 |  | 
C/C(=C\c1cc(F)c2nnn(C3CCOCC3)c2c1)[C@H]1OC(=O)C[C@H](O)CC[C@H](C)[C@@H](OC(=O)N2CCN(C)CC2)/C=C/[C@@H]1C [Compound 140] | 1.73 | 11.6 | 11.8 | 1.25 | −82.434 | −80.398 | 1.63 |  | 
C/C(=C\c1cc(F)c2nn(C3CCOCC3)nc2c1)[C@H]1OC(=O)C[C@H](O)CC[C@H](C)[C@@H](OC(=O)N2CCN(C)CC2)/C=C/[C@@H]1C [Compound 141] | 13 | > 25000 | 61.3 | 48.8 | −63.745 | −94.865 | 72.4 |  | 
C/C(=C\c1cc(F)cc(N2CCN(C(=O)C3CCOC3)CC2)c1)[C@H]1OC(=O)C[C@H](O)CC[C@H](C)[C@@H](OC(=O)N2CCN(C)CC2)/C=C/[C@@H]1C (some centres unmarked) [Compound 143] | 3.2 | 19.2 | 17.2 |  | −84.803 | −87.719 |  | 1.75 | 3.67
CC(=O)N1CCC(n2nnc3c(F)cc(/C=C(\C)[C@H]4OC(=O)C[C@H](O)CC[C@H](C)[C@@H](OC(=O)N5CCN(C)CC5)/C=C/[C@@H]4C)cc32)CC1 [Compound 160] | 1.65 | 4.68 | 4.69 | 0.896 | −86.403 | −82.399 | 1.15 |  | 
